# pIC50, pKi: −log10 of the molar value.
# Tests used:
# [1] = biological target: T1, recombinant human B1 receptors (Homo sapiens, UniProt P46663); assay: Functional assay: antagonist potency by cytosolic calcium measurement in CHO-B1 cells; type: cell-based; details: CHO-B1 cells, inhibition of LysDABK (EC80)-evoked [Ca2+]i elevation; read-out: B1 func.
# T1 construct: host or cells: CHO (CHO-B1)
# T1 sequence (P46663 1-353): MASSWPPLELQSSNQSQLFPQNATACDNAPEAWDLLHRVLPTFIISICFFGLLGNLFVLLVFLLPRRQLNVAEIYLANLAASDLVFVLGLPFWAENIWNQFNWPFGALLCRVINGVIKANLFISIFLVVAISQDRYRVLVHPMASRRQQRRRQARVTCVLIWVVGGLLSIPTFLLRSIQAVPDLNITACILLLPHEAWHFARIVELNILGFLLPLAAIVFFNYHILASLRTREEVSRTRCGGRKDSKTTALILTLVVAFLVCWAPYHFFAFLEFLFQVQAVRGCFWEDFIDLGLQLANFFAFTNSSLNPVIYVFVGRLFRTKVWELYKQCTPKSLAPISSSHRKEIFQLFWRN
# Protocol: Assessment of Antagonist Potency at B1 and B2 Receptors In Vitro by Measurement of Cytosolic Calcium Ion Concentration with a Plate Reader Fluorimeter in Cells Expressing Recombinant Human B1 or B2 Receptors
# Chinese hamster ovary (CHO) cells stably expressing recombinant human B1 (CHO-B1, Euroscreen) or B2 (CHO-B2, Perkin-Elmer) receptors were cultured in Dulbecco's Modified Eagle's Medium (DMEM) containing 10% Fetal Calf Serum (FCS), 100 U/ml penicillin, 0.1 mg/ml streptomycin, 0.25 μg/ml amphotericin B, 1% Minimum Essential Medium Eagle (MEM), non essential amino acid solution, 600 μg/ml G418, 1% pyruvate (for the B2 cell line). Cells were kept at 37° C. in a humidified incubator in an atmosphere of 5% CO2/95% air and were passaged 1:4 three times a week. Cells were plated at 1.5−2.5×10^4 cell/well on standard 96-well microplates, measurements of cytosolic calcium ion concentration ([Ca^2+]i) were carried out 1-2 days after cell plating.
# Measurements of [Ca^2+]i were carried out on CHO-B1 and CHO-B2 cells stably expressing human B1 and B2 receptors, respectively. Cells were grown in standard 96-well microplates and before the measurement were loaded with a fluorescent Ca^2+-sensitive dye, fluo-4/AM (2 μM): after removing the culture medium the dye was added to the cells (dissolved in assay buffer: 145 mM NaCl, 5 mM KCl, 2 mM MgCl2, 2 mM CaCl2, 10 mM HEPES, 20 mM D-glucose, 2 mM probenecid, 100 μl/well) and cells were incubated at 37° C. in a humidified incubator in an atmosphere of 5% CO2/95% air for 40-120 min. To stop dye loading cells were washed twice with assay buffer. After washing, various concentrations of the test compounds (diluted in extracellular medium from a DMSO stock solution, final DMSO concentration was <0.1%) or buffer were added to each well depending on the experimental setup. After incubation at 37° C. for 20-25 min. baseline and agonist-evoked changes of [Ca^2+]i were measured column by column with a plate reader fluorimeter (Fluoroskan Ascent, Labsystems). Excitation and detection of emission was carried out from the bottom of the plate. Filters used for Fluo-4: excitation filter—485 nm, emission filter—538 nm. The whole measurement process was performed at 37° C. and was controlled by custom software. Inhibitory potency of the test compounds was assessed by measuring the reduction in the agonist-evoked [Ca^2+]i-elevation in the presence of different concentrations of the compounds. The agonists were LysDABK for CHO-B1, and bradykinin for CHO-B2 cells. Agonists were applied at an EC80 concentration, the EC80-values were derived from daily determined dose-response curves. Fluorescence data were expressed as ΔF/F (fluorescence change normalized to baseline). All treatments on a single plate were measured in multiple wells. Data from all wells with the same treatment were averaged and the average values were used for analysis. Inhibitory potency of a compound at a single concentration point was expressed as percent inhibition of the control agonist response. Sigmoidal concentration-inhibition curves were fitted to the data (derived from at least three independent experiments) and IC50-values were determined as the concentration that produces half of the maximal inhibition caused by the compound.
# [2] = biological target: T2, human recombinant bradykinin B1 receptor (Homo sapiens, UniProt P46663); assay: Human recombinant bradykinin B1 receptor binding; details: CHO cell membranes, [3H]-[Des-Arg10] Kallidin radioligand; read-out: B1 binding
# T2 construct: purchased Euroscreen ES-091; host or cells: CHO cells
# T2 sequence (P46663 1-353): T1 sequence (P46663 1-353)
# Protocol: 1. Human Recombinant Bradykinin B1 Receptor Binding
# Binding assays were carried out on human recombinant bradykinin) receptors (expressed in CHO cells) according to the Euroscreen Technical Data Sheet (Cat. No.: ES-091). 20 μg protein/tube was incubated with [3,4-prolyl-3,4-^3H(N)]-[Des-Arg^10] Kallidin as radioligand. Non specific binding was determined in the presence of 10 μM Lys-des-Arg^9-Bradykinin. The final incubation volume was 250 μl. Samples were incubated for 15 min. at 25° C. then were rapidly vacuum filtered through GF/B filters presoaked for at least 1 h in 0.5% PEI. Radioactivity was determined by liquid scintillation spectroscopy.
SMILES,pIC50 [1],pKi [2]
"C[C@H](NC(=O)c1ccc(S(=O)(=O)Nc2ccccc2Oc2ccccc2)cc1)C(=O)N1CCC(CCN2CCCC2)CC1 [Example 26, (S)—N-{1-Methyl-2-oxo-2-[4-(2-pyrrolidin-1-yl-ethyl)-piperidin-1-yl]-ethyl}-4-(2-phenoxy-phenylsulfamoyl)-benzamide]",> 7.70,> 7.70
"O=C(N[C@@H](Cc1ccc(O)cc1)C(=O)N1CCC(N2CCCC2)CC1)c1ccc(S(=O)(=O)Nc2ccccc2Oc2ccccc2)cc1 [Example 33, (S)—N-[1-(4-Hydroxy-benzyl)-2-oxo-2-(4-pyrrolidin-1-yl-piperidin-1-yl)-ethyl]-4-(2-phenoxy-phenylsulfamoyl)-benzamide]",> 7.70,> 7.70
"CN1CCC(N2CCN(C(=O)[C@H](Cc3ccc(O)cc3)NC(=O)c3ccc(S(=O)(=O)Nc4ccccc4Oc4ccccc4)cc3)CC2)CC1 [Example 37, (S)—N-{1-(4-Hydroxy-benzyl)-2-[4-(1-methyl-piperidin-4-yl)-piperazin-1-yl]-2-oxo-ethyl}-4-(2-phenoxy-phenylsulfamoyl)-benzamide]",> 7.70,> 7.70

# Source: US20100298299A1, “NON-PEPTIDE DERIVATIVES AS BRADYKININ B1 ANTAGONISTS” (priority 2007, published 2010)
